Data as given in patent US7563805B2, “Tri-, tetra-substituted-3-aminopyrrolidine derivative” (Daiichi Pharmaceutical Co., Ltd., priority 2005, dated 2009).
≈ marks a conversion by molar mass, not a printed value. Where two headings read alike, the source gives them in different places.

Tests used:
[1] = tested on: S. marscecens, 10100; test: antibacterial activity (MIC), standard method of Japanese Society of Chemotherapy
[2] = tested on: Mycobacterium tuberculosis (sensitive bacteria); test: anti-Mycobacterium tuberculosis (sensitive bacteria) activity, MIC; type: cell-based
[3] = in vivo; conditions: male, Crj:CD IGS, rat, po, 5 mg/kg
Protocol: (§1) The Comparative compound was also evaluated by the same procedure.
(§2) The test substance was orally administered to fasted rats (7 week old male Crj:CD IGS rats purchased from Charles River Laboratories Japan, Inc.) at a dose of 5 mg/kg.
(§3) Animals of absorption test group (3 animals per group) were sacrificed by bleeding under etherization at 0.25, 0.5, 1, 2, 4, and 8 hours after the drug administration, and blood, lever, kidney, and lung were collected. The blood was centrifuged (3000 rpm×15 minutes, 4° C.) after coagulation to collect serum. Tissue was homogenized after adding 3 to 5 mL of 0.1 mol/l phosphate buffer (pH 7.0), and the supernatant was collected from the homogenate (3000 rpm×15 minutes, 4° C.).
(§4) Animals of excretion test group (3 animals per group) were placed in a metabolic cage, and the urine of 0 to 4 hours and 4 to 24 hours after the administration was collected in a water-cooled container. Simultaneously with the collection of the urine, the cage was also washed with about 15 mL of 0.1 mol/l phosphate buffer (pH 7.0) to collect the urine attached to the cage. For evaluation of conjugates such as glucuronide, the collected sample was also aliquoted and hydrolyzed with an equal amount of 1 mol/l aqueous solution of sodium hydroxide, and the hydrolysate was neutralized with 0.5 mol/l hydrochloric acid and measured for its concentration. The concentration was measured by LC-MS/MS method.
(§5) Pharmacokinetic parameters of the each drug in rat were calculated by from the time course of the average concentration by using pharmacokinetic analysis software PSAG-CP (AS Medica Inc.) in a manner not dependent on the model animal.

[4] = tested on: E. coli NIHJ; test: antibacterial activity (MIC), standard method of Japanese Society of Chemotherapy; conditions: Escherichia coli
[5] = tested on: S. aureus, 209P; test: as above; conditions: Staphylococcus aureus
[6] = tested on: P. aeruginosa, 32121; test: as above; conditions: Pseudomonas aeruginosa
[7] = tested on: Mycobacterium tuberculosis (quinolone sensitive); test: anti-Mycobacterium tuberculosis (quinolone sensitive) activity, MIC; type: cell-based
[8] = design: species or system guinea pigs (Slc:Hertley); conditions: guinea pig, in vivo
Protocol: Guinea pig maximization test (GPMT) which is a widely accepted model for delayed antigenicity was conducted according to the method of Mugnusson et al. (J. invest. Dermatol., 52, 1969) by using a cutaneous sensitization concentration of 1% and a patch sensitization and induction concentration of 10%. At day 1, the animal was sensitized by cutaneously administering the test substance (the quinolone compounds and the control: vehicle, vaseline) (1% solution in physiological saline+FCA emulsion) at the back of the head of the shaved guinea pigs (7 week old male Slc:Hertley). At day 7, lauryl sodium sulfate (SLC) was applied for stimulus (adjuvant treatment), and on the next day, the test substance coated on a wax paper was patched onto the shaved skin to for sealed sensitization, and after 48 hours (at day 10), the waxed paper was removed. The skin reaction was observed upon the removal. On day 22, the test substance (10%) was patched onto the anterior side of the body for induction, and the induction patching was removed after 24 hours. On the next day (at day 24) and the next day (at day 25), the skin reaction was evaluated according to the description of the document as mentioned above. Erythema and edema were scored, and the case with the total score of 2 or higher was evaluated to be positive with the maximum of the score being 7.

[9] = tested on: E. faecalis, ATCC 19433; test: antibacterial activity (MIC), standard method of Japanese Society of Chemotherapy; conditions: Enterococcus faecalis, ATCC19433, E. faecalis
[10] = in vivo; conditions: female, cynomolgus monkey, po, 5 mg/kg
[11] = tested on: S. epidermidis, 56500; test: antibacterial activity (MIC), standard method of Japanese Society of Chemotherapy; conditions: Staphylococcus epidermidis, 56500, S. epidermidis
[12] = tested on: S. aureus, 87037 (LVFX-resistant MRSA); test: as above; conditions: Staphylococcus aureus, MRSA, S. aureus, 87037 (LVFX-resistant MRSA)
[13] = tested on: P. aeruginosa, 32104; test: as above; conditions: Pseudomonas aeruginosa
[14] = tested on: S. pneumoniae, J24 (penicillin-intermediate resistant bacteria); test: as above; conditions: Streptococcus pneumoniae
[15] = tested on: P. vulgaris, 08601; test: as above; conditions: Proteus vulgaris, 08601, P. vulgaris
[16] = target: hERG K+ channel (Homo sapiens, UniProt Q12809); test: hERG-K^+ channel blocking effect
hERG K+ channel, sequence (Q12809 whole entry): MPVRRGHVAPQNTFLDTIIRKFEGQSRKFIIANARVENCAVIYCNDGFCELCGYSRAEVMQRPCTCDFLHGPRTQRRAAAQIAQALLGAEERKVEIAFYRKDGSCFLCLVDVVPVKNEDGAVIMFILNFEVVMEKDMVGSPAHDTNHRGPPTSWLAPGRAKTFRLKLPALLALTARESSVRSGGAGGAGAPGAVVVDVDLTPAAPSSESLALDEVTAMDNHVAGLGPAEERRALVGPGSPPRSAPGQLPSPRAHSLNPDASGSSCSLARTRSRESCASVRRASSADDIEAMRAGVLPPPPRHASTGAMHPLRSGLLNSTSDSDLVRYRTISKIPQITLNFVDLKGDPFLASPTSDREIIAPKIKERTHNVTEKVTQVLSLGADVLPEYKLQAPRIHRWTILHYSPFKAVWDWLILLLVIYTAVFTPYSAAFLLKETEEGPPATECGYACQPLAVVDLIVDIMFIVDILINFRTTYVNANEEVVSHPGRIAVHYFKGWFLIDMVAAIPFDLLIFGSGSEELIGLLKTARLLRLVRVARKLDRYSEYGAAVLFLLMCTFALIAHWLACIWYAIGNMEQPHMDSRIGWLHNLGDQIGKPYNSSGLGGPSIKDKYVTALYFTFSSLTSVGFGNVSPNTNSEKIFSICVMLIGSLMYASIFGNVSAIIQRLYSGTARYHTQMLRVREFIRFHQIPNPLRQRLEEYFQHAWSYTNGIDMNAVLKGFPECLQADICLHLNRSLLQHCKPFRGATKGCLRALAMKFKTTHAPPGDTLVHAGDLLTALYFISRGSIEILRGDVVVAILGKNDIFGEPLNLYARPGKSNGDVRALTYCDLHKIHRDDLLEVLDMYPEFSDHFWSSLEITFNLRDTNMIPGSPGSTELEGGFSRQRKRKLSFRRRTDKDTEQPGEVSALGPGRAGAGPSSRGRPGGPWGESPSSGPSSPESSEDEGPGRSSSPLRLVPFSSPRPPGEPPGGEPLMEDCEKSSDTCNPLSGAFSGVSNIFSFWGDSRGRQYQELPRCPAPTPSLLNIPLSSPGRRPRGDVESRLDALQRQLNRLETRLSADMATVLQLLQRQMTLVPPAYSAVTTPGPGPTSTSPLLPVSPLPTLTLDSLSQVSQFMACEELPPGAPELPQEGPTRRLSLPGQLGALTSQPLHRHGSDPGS

[17] = female, cynomolgus monkey, in vivo, 5 mg/kg
[18] = male, Crj:CD IGS, rat, in vivo, po, 5 mg/kg
Protocol: as §1, §2, §3, §4, §5

[19] = tested on: bone marrow cells (polychromatic erythrocytes); test: mouse bone marrow micronucleus test; type: in vivo, Slc:ddY male mice; conditions: single i.v. dose, 24 h, Example 2: 50, 100 mg/kg, Example 3: 100, 150 mg/kg, Example 9: 50, 100, 150 mg/kg
Protocol: The control was 0.1 mol/l NaOH/physiological saline solvent, and the positive control was cyclophosphamide (cyclophoshamide, CP) dissolved and diluted in physiological saline. All samples were sterilized by filtering through Milex GS filter (0.22 μm). Each solution was intravenously administered at a dose of 10 mL/kg in single dose at an administration rate of 0.2 mL/min.
Bone marrow cells were collected from thigh bone at 24 hours after the administration, and smear preparation was prepared. After staining with acridine orange, 1000 polychromatic erythrocytes per animal were observed under fluorescence microscope to count frequency of micrronucleated polychromatic erythrocyte and ratio of the orthochromatic erythrocytes to the polychromatic erythrocyte in 1000 erythrocytes.
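Wherever Serum AUC0-8 h is given: fasted 7-week-old rats, three per group, tissue sampled up to 8 h post-dose and urine collected over 0–24 h, with conjugates measured after alkaline hydrolysis, concentrations by LC-MS/MS.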
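Wherever Tissue AUC0-8 h, Kidney is given: fasted 7-week-old rats, three per group, tissue sampled up to 8 h post-dose and urine collected over 0–24 h, with conjugates measured after alkaline hydrolysis, concentrations by LC-MS/MS.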
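Wherever Tissue AUC0-8 h, Liver is given: fasted 7-week-old rats, three per group, tissue sampled up to 8 h post-dose and urine collected over 0–24 h, with conjugates measured after alkaline hydrolysis, concentrations by LC-MS/MS.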
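Wherever Tissue AUC0-8 h, Lung is given: fasted 7-week-old rats, three per group, tissue sampled up to 8 h post-dose and urine collected over 0–24 h, with conjugates measured after alkaline hydrolysis, concentrations by LC-MS/MS.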

COc1c(N2C[C@@H](N)C3(CC3)C2)c(F)cc2c(=O)c(C(=O)O)cn([C@@H]3C[C@@H]3F)c12 [Comparative compound 1]
MIC [1]: 0.05 µg/mL (≈ 0.123 µM) | MIC ([2]; H37RV, strain H37Rv): 0.06 µg/mL (≈ 0.148 µM) | MIC ([2]; strain Kurono): 0.06 µg/mL (≈ 0.148 µM) | MIC ([2]; strain Ravenel): 0.06 µg/mL (≈ 0.148 µM) | MIC ([2]; strain TB-s 2): 0.125 µg/mL (≈ 0.308 µM) | MIC ([2]; strain TB-s 3): 0.125 µg/mL (≈ 0.308 µM) | MIC ([2]; strain TB-s 4): 0.125 µg/mL (≈ 0.308 µM) | MIC ([2]; strain TB-s 5): 0.06 µg/mL (≈ 0.148 µM) | MIC ([2]; strain TB-s 6): 0.125 µg/mL (≈ 0.308 µM) | MIC ([2]; strain TB-s 7): 0.25 µg/mL (≈ 0.617 µM) | MIC ([2]; strain TB-s 8): 0.06 µg/mL (≈ 0.148 µM) | MIC ([2]; strain TB-s 9): 0.125 µg/mL (≈ 0.308 µM) | MIC ([2]; strain TB-s 10): 0.06 µg/mL (≈ 0.148 µM) | MIC ([2]; strain TB-s 11): 0.125 µg/mL (≈ 0.308 µM) | MIC ([2]; strain TB-s 12): 0.25 µg/mL (≈ 0.617 µM) | MIC ([2]; strain TB-s 13): 0.125 µg/mL (≈ 0.308 µM) | MIC ([2]; strain TB-s 14): 0.125 µg/mL (≈ 0.308 µM) | MIC ([2]; strain TB-s 15): 0.125 µg/mL (≈ 0.308 µM) | MIC ([2]; strain TB-s 16): 0.125 µg/mL (≈ 0.308 µM) | MIC ([2]; strain TB-s 17): 0.125 µg/mL (≈ 0.308 µM) | MIC ([2]; strain TB-s 18): 0.125 µg/mL (≈ 0.308 µM) | MIC ([2]; strain TB-s 19): 0.125 µg/mL (≈ 0.308 µM) | MIC ([2]; strain TB-s 20): 0.25 µg/mL (≈ 0.617 µM) | MIC ([2]; strain TB-s 21): 0.125 µg/mL (≈ 0.308 µM) | MIC ([2]; strain TB-s 22): 0.06 µg/mL (≈ 0.148 µM) | Cmax [3]: 820 ng/mL | MIC [4]: ≤ 0.003 µg/mL | MIC [5]: 0.006 µg/mL (≈ 0.0148 µM) | MIC [6]: 0.05 µg/mL (≈ 0.123 µM) | MIC ([7]; strain 1 (QR-3)): 1 µg/mL (≈ 2.47 µM) | MIC ([7]; strain 2 (QR-6)): 128 µg/mL (≈ 316 µM) | MIC ([7]; strain 3 (QR-1)): 2 µg/mL (≈ 4.93 µM) | MIC ([7]; strain 4 (QR-9)): 32 µg/mL (≈ 78.9 µM) | MIC ([7]; strain MDR 1): 0.5 µg/mL (≈ 1.23 µM) | MIC ([7]; strain MDR 3): 0.5 µg/mL (≈ 1.23 µM) | MIC ([7]; strain MDR 4): 0.5 µg/mL (≈ 1.23 µM) | MIC ([7]; strain MDR 5): 1 µg/mL (≈ 2.47 µM) | MIC ([7]; strain MDR 7): 0.5 µg/mL (≈ 1.23 µM) | MIC ([7]; strain MDR 9): 0.5 µg/mL (≈ 1.23 µM) | MIC ([7]; strain MDR 12): 0.5 µg/mL (≈ 1.23 µM) | MIC ([7]; strain S 1): 2 µg/mL (≈ 4.93 µM) | Evaluation in GPMT [8]: Positive | Average score in GPMT ([8]; male, Slc:Hertley): 6.8 | MIC [9]: 0.1 µg/mL (≈ 0.247 µM) | AUC(0-t) [10]: 5110 ng·h/mL | Cmax [10]: 840 ng/mL | half-life [10]: 5 h | MIC [11]: 0.05 µg/mL (≈ 0.123 µM) | MIC [12]: 0.39 µg/mL (≈ 0.962 µM) | MIC [13]: 0.1 µg/mL (≈ 0.247 µM) | MIC [14]: 0.025 µg/mL (≈ 0.0617 µM) | MIC [15]: 0.012 µg/mL (≈ 0.0296 µM) | inhibition at 30 µM [16]: 6.7 ± 8.3% | inhibition at 100 µM [16]: 13.5 ± 3.1% | inhibition at 300 µM [16]: 24.8 ± 16.5% | Recovery (%) in urine in relation to the amount administered, Recovery (%) including conjugate [17]: 32.9% | Recovery (%) in urine in relation to the amount administered, Recovery (%) including conjugate [18]: 23.1% | Serum AUC0-8 h [18]: 1590 ng·h/mL | Tissue AUC0-8 h, Kidney [18]: 19300 ng·h/mL | Tissue AUC0-8 h, Liver [18]: 15000 ng·h/mL | Tissue AUC0-8 h, Lung [18]: 6770 ng·h/mL | Tissue Cmax, Kidney [18]: 8.63 µg/g | Tissue Cmax, Liver [18]: 9.3 µg/g | Tissue Cmax, Lung [18]: 2.59 µg/g

COc1c(N2C[C@H](C)[C@@](C)(N)C2)c(F)cc2c(=O)c(C(=O)O)cn([C@@H]3C[C@@H]3F)c12 (single isomer, unassigned) [Example 2, 7-[(3R*,4S*)-3-Amino-3,4-dimethylpyrrolidin-1-yl]-6-fluoro-1-[(1R,2S)-2-fluorocyclopropyl]-8-methoxy-1,4-dihydro-4-oxoquinoline-3-carboxylic acid]
MIC [1]: 0.1 µg/mL (≈ 0.245 µM) | AUC(0-t) [3]: 1310 ng·h/mL | Cmax [3]: 670 ng/mL | MIC [4]: 0.012 µg/mL (≈ 0.0295 µM) | micronucleus induction rate versus control, evaluation result [19]: negative | MIC [5]: 0.025 µg/mL (≈ 0.0614 µM) | MIC [6]: 0.1 µg/mL (≈ 0.245 µM) | MIC [9]: 0.2 µg/mL (≈ 0.491 µM) | MIC [11]: 0.05 µg/mL (≈ 0.123 µM) | MIC [12]: 0.78 µg/mL (≈ 1.91 µM) | MIC [13]: 0.2 µg/mL (≈ 0.491 µM) | MIC [14]: 0.1 µg/mL (≈ 0.245 µM) | MIC [15]: 0.025 µg/mL (≈ 0.0614 µM) | inhibition at 30 µM [16]: 3.8 ± 2.1% | inhibition at 100 µM [16]: 8.5 ± 1.2% | inhibition at 300 µM [16]: 18.2 ± 4.2% | Recovery (%) in urine in relation to the amount administered, Recovery (%) including conjugate [18]: 26.6% | Tissue AUC0-8 h, Kidney [18]: 14700 ng·h/mL | Tissue AUC0-8 h, Liver [18]: 17400 ng·h/mL | Tissue AUC0-8 h, Lung [18]: 8070 ng·h/mL | Tissue Cmax, Kidney [18]: 7.78 µg/g | Tissue Cmax, Liver [18]: 10.2 µg/g | Tissue Cmax, Lung [18]: 2.46 µg/g
